Assays:
[1] = biological target: T1, human recombinant CyPA (Homo sapiens, UniProt P62937); assay: Rotamase (PPIase) inhibition, chymotrypsin-coupled cuvette assay, human recombinant CyPA; type: biochemical; settings: Table A, value without asterisk: human recombinant CyPA
Source text: A number of substrates for rotamase are known in the art or can be derived from those known. Typically, the substrate contacts a sample containing a protein with rotamase activity and the conversion of the substrate is detected after a period of time. The method for detecting conversion of the substrate will vary with the particular substrate chosen. One method has been termed the Ki test (See Harding, et al., Nature, 341:758-760 (1989); and Holt et al., J. Am. Chem. Soc., 115:9923-9938). The cis-trans isomerization of an alanine-proline bond in a model substrate, N-succinyl-Ala-Ala-Pro-Phe-p-nitroanilide (SEQ ID NO: 1), is monitored spectrophotometrically in a chymotrypsin-coupled assay. The action of chymotrypsin releases p-nitroaniline from only the trans form of the substrate. The amount of p-nitroaniline can be monitored in a spectrophotometer, for example. Other methods of detecting the presence of p-nitroaniline can also be used. The inhibition of this reaction caused by different concentrations of inhibitor is determined and the data are analyzed as a change in first-order rate constant as a function of inhibitor concentration, which yields the Ki value.
The following were added to a plastic cuvette: 950 μl of ice cold assay buffer (25 mM HEPES, pH 7.8, 100 mM NaCl), 10 μL of CyP A (2.5 μM in 10 mM Tris-Cl pH 7.5, 100 mM NaCl, 1 mM dithiothreitol), 25 μL of chymotrypsin (50 mg/ml in 1 mM HCl), and 10 μL of test compound, at various concentrations, in dimethyl sulfoxide. The reaction was initiated by the addition of 5 μL of substrate (succinyl-Ala-Phe-Pro-Phe-para-nitroanilide (SEQ ID NO: 1), 5 mg/mL in 470 mM LiCl in trifluoroethanol). The absorbance at 390 nm versus time was monitored for 90 seconds using a spectrophotometer and the rate constants were determined from the absorbance versus time data files.
The IC50 values which were obtained for representative compounds are given in the following Table A, and refer to the concentration that inhibits 50% of the rotamase activity in a sample.
(§1) The Cyclophilin utilized was a human recombinant CyPA, [Yoo et al., J. Mol. Biol., 269 (1997) 780-95].

[2] = biological target: T1, human recombinant CyPA; assay: Semiautomated microtiter plate assay of rotamase activity inhibition, human recombinant CyPA; type: biochemical; settings: Table B, value without asterisk: human recombinant CyPA
Method: (§2) Rotamase inhibition was determined using a semiautomated microtiter plate assay modification of the above described assay [see Küllertz et al., Clin. Chem. 44, 502-508 (1998)]. All dilutions of CyPA, peptide substrate, and chymotrypsin were made in 35 mM ice-cold HEPES buffer. Fifty μL of CyPA solution is added to 50 μL of the peptide substrate solution (Phe-Pro-Phe p-nitroanilide, 0.16 mg/ml) in a glass microtiter well plate (the concentration of human recombinant CyP being adjusted so that the reaction rate is increased by a factor of 3 as compared to an uncatalyzed control reaction wherein the peptide substrate is degraded by chymotrypsin alone, in the absence of CyPA and test compound). Using a Beckman Multimek™ 96 automated 96-channel pipettor, 5 μL of test compound solution, or a DMSO blank, were added to each well for a 30 minute preincubation at 4° C. One hundred μL of chymotrypsin solution (1 mg/mL) were added to each well and the absorbance at 390 nm versus time was monitored for 9-10 minutes using a BioRad Ultramark plate reader maintained at 4° C. and the rate constants were determined from the absorbance versus time data files.
(§3) IC50 values which were obtained for representative compounds are presented in the following Table B. The cyclophilin utilized was a human recombinant CyPA. […] While CyP A was used in these examples, other CyP proteins can be substituted.

[3] = biological target: T2, recombinant rat CyPA-GST fusion protein (Rattus norvegicus, UniProt P10111); assay: Rotamase (PPIase) inhibition, chymotrypsin-coupled cuvette assay, rat CyPA-GST fusion protein; type: biochemical; settings: Table A, value with asterisk: recombinant rat CyPA-GST fusion protein
T2 construct: made in house; host or cells: E. coli BL21

[4] = biological target: T2, recombinant rat CyPA-GST fusion protein; assay: Semiautomated microtiter plate assay of rotamase activity inhibition, rat CyPA-GST fusion protein; type: biochemical; settings: Table B, value with asterisk: recombinant rat CyPA-GST fusion protein
Method: as §1
The resulting fragment (573 base pairs) was cloned into pCRII and amplified. The CyP sequence was cut out with Sma1 and EcoR1 and cloned into the Sma1/EcoR1 sites in pGEX2TK (Pharmacia). This plasmid was transformed into BL21 E. coli cells for expression of the GST-CyPA fusion protein.
as §2, §3

[5] = system: nigrostriatal dopaminergic fibers; assay: MPTP-lesioned mouse model of Parkinson's disease, striatal TH fiber density; type: in vivo, CD1 albino mice; settings: for % protection of striatal tyrosine hydroxylase-immunoreactive fibres: 10 mg/kg s.c. once daily days 1-5, one hour prior to MPTP, perfused day seven

T1 sequence (P62937 whole entry): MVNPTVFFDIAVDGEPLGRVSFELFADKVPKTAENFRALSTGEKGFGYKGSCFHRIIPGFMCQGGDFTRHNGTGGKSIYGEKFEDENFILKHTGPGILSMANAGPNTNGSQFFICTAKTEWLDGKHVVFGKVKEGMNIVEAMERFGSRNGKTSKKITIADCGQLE
T2 sequence (P10111 2-164): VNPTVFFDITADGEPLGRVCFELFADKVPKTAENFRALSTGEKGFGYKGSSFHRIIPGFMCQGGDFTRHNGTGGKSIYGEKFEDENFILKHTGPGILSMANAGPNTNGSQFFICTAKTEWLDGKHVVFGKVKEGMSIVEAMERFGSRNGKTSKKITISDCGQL

IC50 [1] | IC50 [2] | IC50 [3] | Molecule | further results
456 nM | 1370 nM |  | S=C(Nc1cc(Cl)cc(Cl)c1)Nc1cc(NC(=S)Nc2cc(Cl)cc(Cl)c2)cc(Nc2ccccn2)c1 [Compound 13] | 
18700 nM | 9100 nM |  | O=C(NNC(=O)c1cc(O)cc(NC(=O)c2cccc(C(F)(F)F)c2)c1)c1ccccc1 [Compound 15, 1-Benzoyl-2-{3-[(3-trifluoromethyl)phenyl]carbonylamino-5-hydroxy}benzoylhydrazine] | 
153 nM | 499 nM |  | O=C(Nc1cc(Cl)cc(Cl)c1)c1cc(COc2ccc(Cl)c(Cl)c2)cc(C(=O)Nc2cc(Cl)cc(Cl)c2)c1 [Compound 20, 1-[(3,4-dichlorophenyl)oxymethyl]-3,5-bis-[(3,5-dichlorophenyl)aminocarbonyl]benzene] | 
490 nM | 1730 nM |  | N#Cc1ccccc1-c1ccc(COc2cc(C(=O)NCCc3ccc(Cl)c(Cl)c3)cc(C(=O)NCCc3ccc(Cl)c(Cl)c3)c2)cc1 [Compound 21, 1-[4-(2-cyanophenyl)benzy]loxy-3,5-bis{2-[(3,4-dichlorophenyl)ethyl]aminocarbonyl}benzene] | 
297 nM | 2030 nM |  | O=C(Nc1cccc(C(F)(F)F)c1)c1cc(/C=C/c2ccc3ccccc3c2)cc(C(=O)Nc2cccc(C(F)(F)F)c2)c1 [Compound 25, (5-(2-(2-naphthyl)vinyl)-3-{N-[3-(trifluoromethyl)phenyl]carbamoyl}phenyl)-N-[3-(trifluoromethyl)phenyl]formamide] | 
1580 nM |  | 3530 nM | Nc1cc(CN2C(=O)c3ccccc3C2=O)cc(NC(=S)Nc2cc(Cl)cc(Cl)c2)c1 [Compound 31, 2-{[3-amino-5-({[(3,5-dichlorophenyl)amino]thioxomethyl}amino)phenyl]methyl}isoindoline-1,3-dione] | IC50 [4]: 6940 nM
164 nM | 51.5 nM | 102 nM | O=C(Nc1cc(Cl)c(Cl)c(Cl)c1)c1cc(OCc2ccc(Cl)c(Cl)c2)cc(C(=O)Nc2cc(Cl)c(Cl)c(Cl)c2)c1 [Compound 32, 1-(3,4-dichlorobenzyloxy)-3,5-bis-[(3,4,5-trichlorophenyl)aminocarbonyl]benzene] | IC50 [4]: 91.7 nM
 |  | 1310 nM | CN(C)c1ccc(Nc2ccc(NC(=S)Nc3cc(Cl)cc(Cl)c3)cc2NC(=S)Nc2cc(Cl)cc(Cl)c2)cc1 [Compound 35, [(3,5-dichlorophenyl)amino]{[5-({[(3,5-dichlorophenyl)amino]thioxomethyl}amino)-2-{[4-(dimethylamino)phenyl]amino}phenyl]amino}methane-1-thione] | IC50 [4]: 353 nM
1200 nM |  |  | O=C(Nc1ccc(Cl)c(C(F)(F)F)c1)c1cccc(COc2cc(C(=O)Nc3ccc(Cl)c(C(F)(F)F)c3)cc(C(=O)Nc3ccc(Cl)c(C(F)(F)F)c3)c2)c1 [Compound 37, 3-{[(3-Trifluoromethyl-4-chlorophenyl)aminocarbonyl]benzyloxy}-1,5-bis-[(3-trifluoromethyl-4-chlorophenyl)aminocarbonyl]benzene] | 
736 nM |  |  | O=C(Nc1ccc(Cl)c(Cl)c1)c1cccc(COc2cc(C(=O)Nc3ccc(Cl)c(Cl)c3)cc(C(=O)Nc3ccc(Cl)c(Cl)c3)c2)c1 [Compound 38, 3-{[(3,4-dichlorophenyl)aminocarbonyl]benzyloxy}-1,5-bis-[(3,4-dichloro-phenyl)aminocarbonyl]benzene] | 
 |  | 230 nM | O=C(Nc1cccc(C(F)(F)F)c1)c1cc(OCc2ccc3ccccc3c2)cc(C(=O)Nc2cccc(C(F)(F)F)c2)c1 [Compound 42, 1,3-Bis[(3-trifluoromethylphenyl)aminocarbonyl]-5-[(2-naphthyl)methyloxy]benzene] | % protection of striatal tyrosine hydroxylase-immunoreactive fibres [5]: 44.1%; striatal TH fiber density ([5]; regeneration protocol: MPTP days 1-5, compound once daily on days 8-12, perfused day 18): 88%
 |  | 374 nM | S=C(Nc1cc(Cl)cc(Cl)c1)Nc1ccc(N2CCCCC2)c(NC(=S)Nc2cc(Cl)cc(Cl)c2)c1 [Compound 44] | % protection of striatal tyrosine hydroxylase-immunoreactive fibres [5]: 25.1%
 |  | 1020 nM | COc1ccc(NC(=O)C(c2ccccc2)c2ccccc2)cc1OCc1cccc2ccccc12 [Compound 49, N-[4-methoxy-3-(naphthylmethoxy)phenyl]-2,2-diphenylethanamide] | 
 |  | 978 nM | COc1ccc(NS(=O)(=O)c2cccc3ccccc23)cc1OCCc1cccc2ccccc12 [Compound 50] | 
 |  | 1550 nM | O=C(Nc1ccc(Cl)c(C(=O)c2ccccc2)c1)c1cc(Cl)cc(Cl)c1 [Compound 51, (3,5-Dichlorophenyl)-N-[4-chloro-3-(phenylcarbonyl)phenyl]formamide] | 
 |  | 861 nM | O=C(Nc1cc(S(=O)(=O)NC(c2ccccc2)c2ccccc2)ccc1Cl)c1cc(Cl)cc(Cl)c1 [Compound 52, (3,5-Dichlorophenyl)-N-(5-{[(diphenylmethyl)amino]sulfonyl}-2-chlorophenyl)formamide] | 

Molecule | IC50 [1] | IC50 [2] | IC50 [3] | further results
O=C(Nc1cccc([N+](=O)[O-])c1)c1ccc(Br)c(C(=O)Nc2cccc([N+](=O)[O-])c2)c1 [Compound 41, {2-bromo-5-[N-(3-nitrophenyl)carbamoyl]phenyl}-N-(3-nitrophenyl) formamide] | 1370 nM |  |  | 
(3-bromo-5-{N-[3-(trifluoromethyl)phenyl]carbamoyl}phenyl)-N-[3-(trifluoromethyl) phenyl]formamide [Compound 26] | 909 nM | 2540 nM |  | 

— patent US6656971B2, “Trisubstituted carbocyclic cyclophilin binding compounds and their use” (Guilford Pharmaceuticals Inc., priority 2001, dated 2003)
